# Source: patent US20240174723A1, “STAPLED ANTIMICROBIAL PEPTIDES (STAMPS) AND USES THEREOF” (Lytica Therapeutics, Inc., priority 2021, published 2024)
# Positions of bridges follow the written chain, without caps; N, C: chain ends. Non-standard residues stand in square brackets, D forms with d. Residues, ends and D or L forms follow the SMILES beside them. S5 = C=CCCC[C@](C)(N)C(=O)O; Dap = NC[C@H](N)C(=O)O
# Experiments:
# E. coli = assay type: cell-based, Escherichia coli
# Method in brief: (§1)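 MIC by CLSI-adapted microbroth dilution; MHB or MHB II; inoculum 5×10^5 CFU/ml final; 20-24 h, 37 °C; endpoint = no visible growth.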
# A. baumannii = assay type: cell-based, Acinetobacter baumannii
# Method in brief: as §1
# P. aeruginosa = assay type: cell-based, Pseudomonas aeruginosa
# Method in brief: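 MIC taken as lowest peptide concentration with no visible growth after 20-24 h at 37 °C. Peptide serial dilutions from water stocks met P. aeruginosa inoculum (5×10^5 CFU/ml final) in MHB or MHB II, per a CLSI-adapted microbroth protocol.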
# K. pneumoniae = assay type: cell-based, Klebsiella pneumoniae
# Method in brief: as §1
# S. aureus = assay type: cell-based, Staphylococcus aureus
# Method in brief: as §1
# in vitro = assay type: cell-based; settings: human, Inhibitory Concentration at 50% Cytotoxicity (IC50) Human Liver Cells (HepG2)
# Method in brief: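 Cytotoxicity read by CellTiter-Glo luminescence after 48 h at 37 °C exposure to serially diluted StAMPs or vehicle. HepG2 cells were grown in EMEM plus 10% FBS and given 4 h to attach before dosing; peptides came from a 5 mg/mL aqueous stock.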
Minimum Inhibitory Concentration (MIC) E. coli (E. coli) [µg/mL],Minimum Inhibitory Concentration (MIC) A. baumannii (A. baumannii) [µg/mL],Minimum Inhibitory Concentration (MIC) P. aeruginosa (P. aeruginosa) [µg/mL],Minimum Inhibitory Concentration (MIC) K. pneumoniae (K. pneumoniae) [µg/mL],Minimum Inhibitory Concentration (MIC) S. aureus (S. aureus) [µg/mL],Compound,IC50 at 48 hours (in vitro) [µg/mL]
2,0.5,2,16,64,"CC(C)[C@@H]1NC(=O)[C@@](C)(NC(=O)[C@H](C)NC(=O)[C@H](CCCCN)NC(=O)CNC(=O)[C@H](Cc2ccccc2)NC(=O)[C@H](CCCCN)NC(=O)[C@H](CCCCN)NC(=O)[C@H](CCCCN)NC(=O)[C@H](CO)NC(=O)[C@H](CN)NC(=O)[C@]2(C)CCCC=CCCC[C@](C)(NC(=O)CN)C(=O)NCC(=O)N[C@@H](CCCCN)C(=O)N[C@@H](Cc3ccccc3)C(=O)N2)CCCC=CCCC[C@@](C)(C(=O)N[C@@H](C)C(=O)N[C@@H](CCCCN)C(=O)N[C@@H](CCCCN)C(N)=O)NC(=O)[C@H](CCC(=O)O)NC(=O)CNC1=O [compound 85] (H-G[S5]GKF[S5][Dap]SKKKFGKA[S5]VGE[S5]AKK-NH2; staple 2-6, 16-20)",> 200
2,1,1,32,64,"CC(C)[C@@H]1NC(=O)[C@@](C)(NC(=O)[C@H](C)NC(=O)[C@H](CCCCN)NC(=O)CNC(=O)[C@H](Cc2ccccc2)NC(=O)[C@H](CCCCN)NC(=O)[C@H](CCCCN)NC(=O)[C@H](CCCCN)NC(=O)[C@H](CCCCN)NC(=O)[C@H](CN)NC(=O)[C@]2(C)CCCC=CCCC[C@](C)(NC(=O)CN)C(=O)NCC(=O)N[C@@H](CCCCN)C(=O)N[C@@H](Cc3ccccc3)C(=O)N2)CCCC=CCCC[C@@](C)(C(=O)N[C@@H](CO)C(=O)N[C@@H](CCCCN)C(=O)N[C@@H](CCCCN)C(N)=O)NC(=O)[C@H](CCC(=O)O)NC(=O)CNC1=O [compound 89] (H-G[S5]GKF[S5][Dap]KKKKFGKA[S5]VGE[S5]SKK-NH2; staple 2-6, 16-20)",199
4,2,2,32,64,"CC(C)[C@@H]1NC(=O)[C@@](C)(NC(=O)[C@H](C)NC(=O)[C@H](CCCCN)NC(=O)CNC(=O)[C@H](Cc2ccccc2)NC(=O)[C@H](CCCCN)NC(=O)[C@H](CCCCN)NC(=O)[C@H](CCCCN)NC(=O)[C@H](CO)NC(=O)[C@H](CCCCN)NC(=O)[C@]2(C)CCCC=CCCC[C@](C)(NC(=O)CN)C(=O)NCC(=O)N[C@@H](CCCCN)C(=O)N[C@@H](Cc3ccccc3)C(=O)N2)CCCC=CCCC[C@@](C)(C(=O)N[C@@H](C)C(=O)N[C@@H](CCCCN)C(=O)N[C@@H](CCCCN)C(=O)NCC(=O)NCC(=O)N[C@@H](CCC(=O)O)C(N)=O)NC(=O)[C@H](CCC(=O)O)NC(=O)CNC1=O [compound 90] (H-G[S5]GKF[S5]KSKKKFGKA[S5]VGE[S5]AKKGGE-NH2; staple 2-6, 16-20)",> 200
64,4,64,>64,>64,"CC(C)[C@@H]1NC(=O)[C@@](C)(NC(=O)[C@H](C)NC(=O)[C@H](CCCCN)NC(=O)[C@H](CO)NC(=O)[C@H](Cc2ccccc2)NC(=O)[C@H](CCCCN)NC(=O)[C@H](CCCCN)NC(=O)[C@H](CCCCN)NC(=O)[C@H](CCCCN)NC(=O)[C@H](CCCCN)NC(=O)[C@]2(C)CCCC=CCCC[C@](C)(NC(=O)CN)C(=O)NCC(=O)N[C@@H](CCCCN)C(=O)N[C@@H](Cc3ccccc3)C(=O)N2)CCCC=CCCC[C@@](C)(C(=O)N[C@@H](C)C(=O)N[C@@H](CCCCN)C(=O)N[C@@H](CCCCN)C(=O)NCC(=O)NCC(=O)N[C@@H](CCC(=O)O)C(N)=O)NC(=O)[C@H](CCC(=O)O)NC(=O)CNC1=O [compound 91] (H-G[S5]GKF[S5]KKKKKFSKA[S5]VGE[S5]AKKGGE-NH2; staple 2-6, 16-20)",> 200
16,8,16,64,>64,"CC(C)[C@@H]1NC(=O)[C@@](C)(NC(=O)[C@H](C)NC(=O)[C@H](CCCCN)NC(=O)CNC(=O)[C@H](Cc2ccccc2)NC(=O)[C@H](CCCCN)NC(=O)[C@H](CCCCN)NC(=O)[C@H](CCCCN)NC(=O)[C@H](CCCCN)NC(=O)[C@H](CCCCN)NC(=O)[C@]2(C)CCCC=CCCC[C@](C)(NC(=O)CN)C(=O)NCC(=O)N[C@@H](CCCCN)C(=O)N[C@@H](Cc3ccccc3)C(=O)N2)CCCC=CCCC[C@@](C)(C(=O)N[C@@H](C)C(=O)N[C@@H](CCCCN)C(=O)N[C@@H](CCCCN)C(=O)NCC(=O)NCC(=O)N[C@@H](CCC(=O)O)C(=O)N[C@@H](CCC(=O)O)C(N)=O)NC(=O)[C@H](CCC(=O)O)NC(=O)CNC1=O [compound 55] (H-G[S5]GKF[S5]KKKKKFGKA[S5]VGE[S5]AKKGGEE-NH2; staple 2-6, 16-20)",207
4,1,2,64,>64,"CC(C)[C@@H]1NC(=O)[C@@](C)(NC(=O)[C@H](C)NC(=O)[C@H](CCCCN)NC(=O)CNC(=O)[C@H](Cc2ccccc2)NC(=O)[C@H](CCCCN)NC(=O)[C@H](CCCCN)NC(=O)[C@H](CN)NC(=O)[C@H](CCCCN)NC(=O)[C@H](CN)NC(=O)[C@]2(C)CCCC=CCCC[C@](C)(NC(=O)CN)C(=O)NCC(=O)N[C@@H](CCCCN)C(=O)N[C@@H](Cc3ccccc3)C(=O)N2)CCCC=CCCC[C@@](C)(C(=O)N[C@@H](C)C(=O)N[C@@H](CCCCN)C(=O)N[C@@H](CCCCN)C(N)=O)NC(=O)[C@H](CCC(=O)O)NC(=O)CNC1=O [compound 82] (H-G[S5]GKF[S5][Dap]K[Dap]KKFGKA[S5]VGE[S5]AKK-NH2; staple 2-6, 16-20)",190
8,4,2,>64,64,"CC(C)[C@@H]1NC(=O)[C@@](C)(NC(=O)[C@H](C)NC(=O)[C@H](CCCCN)NC(=O)CNC(=O)[C@H](Cc2ccccc2)NC(=O)[C@H](CCCCN)NC(=O)[C@H](CCCCN)NC(=O)[C@H](CCCCN)NC(=O)[C@H](CCCCN)NC(=O)[C@H](CCCCN)NC(=O)[C@]2(C)CCCC=CCCC[C@](C)(NC(=O)CN)C(=O)NCC(=O)N[C@@H](CCCCN)C(=O)N[C@@H](Cc3ccccc3)C(=O)N2)CCCC=CCCC[C@@](C)(C(=O)N[C@@H](CO)C(=O)N[C@@H](CCCCN)C(=O)N[C@@H](CCCCN)C(=O)NCC(=O)NCC(=O)N[C@@H](CCC(=O)O)C(N)=O)NC(=O)[C@H](CCC(=O)O)NC(=O)CNC1=O [compound 94] (H-G[S5]GKF[S5]KKKKKFGKA[S5]VGE[S5]SKKGGE-NH2; staple 2-6, 16-20)",> 200
